Test results taken from patent US20070027130A1, “Tricyclic 6-alkylidene-penem beta-lactamase inhibitors and beta-lactam antibiotic combination: a broad spectrum antibiotic” (priority 2005, published 2007).
≈ marks a conversion by molar mass, not a printed value.

How the values were obtained:
[1] = system: A. baumannii GC 7684 AmpC, AmpC; experiment: MIC microbroth dilution; format: cell-based; conditions: Acinetobacter baumannii, β-lactamase class C, MHBII, 35° C. 18 hr, read-out: Minimal Inhibitory Concentration
Experimental: (§1) The in vitro activities of the antibiotics were determined by the microbroth dilution method as recommended by the National Committee for Clinical Laboratory Standards (NCCLS). (NCCLS. 2000. Methods for Dilution Antimicrobial Susceptibility Tests for Bacteria That Grow Aerobically; Approved Standards: M7-A5, vol. 19. National Committee for Clinical Laboratory Standards, Villanova, Pa.). Mueller-Hinton II broth (MHBII) (BBL Cockeysville, Md.), was used for the testing procedure. […]. The plates were incubated for 18-22 hours at 35 C. in ambient air.

[2] = system: A. baumannii GC 7692 TEM-1, AmpC; experiment: MIC microbroth dilution; format: cell-based; conditions: Acinetobacter baumannii, 18 h, read-out: Minimal Inhibitory Concentration
Experimental: as §1

E. coli ATCC 35218 TEM-1 = experiment: MIC microbroth dilution; format: cell-based; conditions: Escherichia coli, ATCC35218, 18 h, read-out: Minimal Inhibitory Concentration
Experimental: as §1

[3] = system: E. coli GC 2015 (TEM-10 + SHV-1); experiment: MIC microbroth dilution; format: cell-based; conditions: Escherichia coli, β-lactamase class A, A (ESBL), MHBII, 35° C. 18 hr, read-out: Minimal Inhibitory Concentration
Experimental: as §1

[4] = system: E. coli GC 2295 TEM-1 + AmpC; experiment: MIC microbroth dilution; format: cell-based; conditions: Escherichia coli, β-lactamase class A, C, MHBII, 35° C. 18 hr, read-out: Minimal Inhibitory Concentration
Experimental: as §1

E. coli GC 2920 (IRT-2) = experiment: MIC microbroth dilution; format: cell-based; conditions: Escherichia coli, β-lactamase class A (IRT), MHBII, 35° C. 18 hr, read-out: Minimal Inhibitory Concentration
Experimental: as §1

K. pn GC 1510 (TEM-10) = experiment: MIC microbroth dilution; format: cell-based; conditions: Klebsiella pneumoniae, β-lactamase class A (ESBL), MHBII, 35° C. 18 hr, read-out: Minimal Inhibitory Concentration
Experimental: as §1

[5] = system: K. pn GC 2391 (pl 5.4; 5.6; 7.6; 8.7 B-lactamases); experiment: MIC microbroth dilution; format: cell-based; conditions: Klebsiella pneumoniae, β-lactamase class A, A (ESBL), C (presumed), MHBII, 35° C. 18 hr, read-out: Minimal Inhibitory Concentration
Experimental: as §1

[6] = system: K. pn GC 6488 (TEM-1 + SHV-5 + SHV-7); experiment: MIC microbroth dilution; format: cell-based; conditions: Klebsiella pneumoniae, β-lactamase class A, A (ESBL), MHBII, 35° C. 18 hr, read-out: Minimal Inhibitory Concentration
Experimental: as §1

[7] = system: K. pn GC 6655 (TEM-1 + ACT-1); experiment: MIC microbroth dilution; format: cell-based; conditions: Klebsiella pneumoniae, β-lactamase class A, C, MHBII, 35° C. 18 hr, read-out: Minimal Inhibitory Concentration
Experimental: as §1

[8] = system: K. pneumoniae GC 7823 Fox 5; experiment: MIC microbroth dilution; format: cell-based; conditions: Klebsiella pneumoniae, GC7823FOX5, β-lactamase class C, MHBII, 35° C. 18 hr, read-out: Minimal Inhibitory Concentration
Experimental: as §1

[9] = system: P. aeruginosa PT 8503 PTZ-R; experiment: MIC microbroth dilution; format: cell-based; conditions: Pseudomonas aeruginosa, PT8503PTZR; P. aeruginosa PT 8503, piperacillin-tazobactam-resistant; MHBII, 35° C. 18 hr; read-out: Minimal Inhibitory Concentration
Experimental: as §1

[10] = system: S. maltophilia GC 1712(L1); experiment: MIC microbroth dilution; format: cell-based; conditions: Stenotrophomonas maltophilia, β-lactamase class B, MHBII, 35° C. 18 hr, read-out: Minimal Inhibitory Concentration
Experimental: as §1

[11] = system: E. coli GC 6265 TEM-1 (LSU-80-8); experiment: In vivo antibacterial protection, infected mice; conditions: 168 h, read-out: ED50 mg/kg/SIV
Experimental: Female mice strain CD-1, approximately 18-22 grams, were received from Charles River Laboratories and quarantined 7 days prior to use.
Clinical isolates that were adapted to cause infection in mice were used in the experiment, including infections with strains of E. coli and E. cloacae.
Mice were challenged by injecting 0.5 ml intraperitoneally of a predetermined bacterial inoculum suspended in 5% hog gastric mucin. The bacterial inoculum was equivalent to 10-100 LD50s of the specific infecting strain and was designed to result in death of the non-treated control animals within 7 days. Antibacterial doses (dose concentration prepared by two fold serial dilutions of the antibiotic or antibiotic/compound combination) were dissolved or suspended in 0.2% aqueous agar (subcutaneous administration) or phosphate buffered saline (intravenous administration) and administered intravenously or subcutaneously in the following manner:
a) Subcutaneously: Dose volume of 0.5 ml was administered ½ hr after infection. […]
A detailed explanation of the protocol for the determination of in vivo efficacy follows: • A) The effectiveness of the lacamase inhibitor compound/cefepime combination was evaluated against a cefepime control. […]
The protective effects of the antibacterial agent(s) were measured by the survival of the infected untreated as compared to the treated animals. […]

CO/N=C(\C(=O)N[C@@H]1C(=O)N2C(C(=O)[O-])=C(C[N+]3(C)CCCC3)CS[C@H]12)c1csc(N)n1 [Cefepime]
MIC [1]: 16 µg/mL (≈ 33.3 µM) | MIC [2]: > 16 µg/mL | MIC (E. coli ATCC 35218 TEM-1): 0.03 µg/mL (≈ 0.0624 µM) | MIC [3]: > 16 µg/mL | MIC [4]: 0.5 µg/mL (≈ 1.04 µM) | MIC (E. coli GC 2920 (IRT-2)): 0.06 µg/mL (≈ 0.125 µM) | MIC (K. pn GC 1510 (TEM-10)): 0.5 µg/mL (≈ 1.04 µM) | MIC [5]: 8 µg/mL (≈ 16.6 µM) | MIC [6]: 8 µg/mL (≈ 16.6 µM) | MIC [7]: 1 µg/mL (≈ 2.08 µM) | MIC [8]: 1 µg/mL (≈ 2.08 µM) | MIC [9]: 8 µg/mL | MIC [10]: > 16 µg/mL | ED50 [11]: 0.039 mg/kg
